The results in this text go back to US11174251B2, “Compositions and methods for inhibition of the JAK pathway” (Rigel Pharmaceuticals, Inc., priority 2010, dated 2021).

Structures can show the parent of a compound that is named as a salt.

The experiment deals with T1, JAK3 (Homo sapiens, UniProt P52333).
T1 construct: The Ramos B-cell line was acquired from ATCC (ATCC Catalog No. CRL-1596); host or cells: Ramos B-cell line (human)
T1 sequence (P52333 1-1124): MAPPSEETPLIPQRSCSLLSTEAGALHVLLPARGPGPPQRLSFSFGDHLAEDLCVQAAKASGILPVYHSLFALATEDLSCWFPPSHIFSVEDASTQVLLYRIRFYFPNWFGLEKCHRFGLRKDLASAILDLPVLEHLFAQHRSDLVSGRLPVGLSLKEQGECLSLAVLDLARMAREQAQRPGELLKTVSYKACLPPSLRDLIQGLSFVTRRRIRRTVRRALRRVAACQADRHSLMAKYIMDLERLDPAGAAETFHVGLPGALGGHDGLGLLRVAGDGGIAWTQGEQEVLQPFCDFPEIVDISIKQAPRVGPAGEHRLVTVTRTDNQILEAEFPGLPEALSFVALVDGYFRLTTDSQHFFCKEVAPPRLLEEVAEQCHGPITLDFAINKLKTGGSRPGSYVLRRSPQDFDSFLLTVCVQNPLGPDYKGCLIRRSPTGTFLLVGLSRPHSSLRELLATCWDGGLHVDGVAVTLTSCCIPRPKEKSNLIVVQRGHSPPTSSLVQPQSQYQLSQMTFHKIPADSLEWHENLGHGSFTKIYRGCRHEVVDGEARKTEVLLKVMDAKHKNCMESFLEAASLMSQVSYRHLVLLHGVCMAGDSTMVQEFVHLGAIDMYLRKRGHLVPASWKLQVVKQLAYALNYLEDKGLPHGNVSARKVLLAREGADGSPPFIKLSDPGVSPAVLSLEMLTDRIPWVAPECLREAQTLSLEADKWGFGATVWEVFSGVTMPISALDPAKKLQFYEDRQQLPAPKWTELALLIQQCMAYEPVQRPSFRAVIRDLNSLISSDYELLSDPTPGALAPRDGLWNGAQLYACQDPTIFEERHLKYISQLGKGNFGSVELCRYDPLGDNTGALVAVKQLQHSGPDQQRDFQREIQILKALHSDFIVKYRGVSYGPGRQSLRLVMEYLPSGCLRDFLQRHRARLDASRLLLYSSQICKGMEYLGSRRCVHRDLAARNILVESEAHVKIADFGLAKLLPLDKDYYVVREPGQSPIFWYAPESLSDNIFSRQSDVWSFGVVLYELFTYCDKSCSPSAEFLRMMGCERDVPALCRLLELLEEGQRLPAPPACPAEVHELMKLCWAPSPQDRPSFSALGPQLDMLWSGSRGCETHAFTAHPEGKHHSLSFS
Put plainly: Assay for CD23 expression on Ramos B-cells stimulated by IL-4 (Table IV: ability to inhibit JAK3 activity). It is filed as cell-based. To be noted: tested under conditions described in Example 3 (so in the source). Put shortly: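 Human Ramos B cells in RPMI with 5% serum, pre-incubated 1 h at 37 °C with compound or DMSO, then stimulated with IL-4 (final 50 units/mL) for 20–24 h. Surface CD23 upregulation measured by FACS staining as readout of JAK1/JAK3–Stat-6 signalling.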

Turning to `Cc1cc(Nc2ncc(Br)c(Nc3ccc4oc(=O)[nH]c4c3)n2)cc(C)c1C` [Compound I-16, 5-(5-bromo-2-(3,4,5-trimethylphenylamino)pyrimidin-4-ylamino)benzo[d]oxazol-2(3H)-one formate salt], the IC50 is < 500 nM.
On to `Cc1cnc(Nc2cc(C)c(C)c(C)c2)nc1Nc1ccc2oc(=O)n(COP(=O)(OCCN(C)C)OCCN(C)C)c2c1` [Compound I-134, N4-{3-bis[2-(N,N-dimethylamino)ethoxy]phosphinyloxymethyl-2-oxo-2,3-dihydro-1,3-benzoxazol-5-yl}-5-methyl-N2-(3,4,5-trimethyl)phenyl-2,4-pyrimidinediamine], for which the 50% inhibitory concentration (IC50) was > 10000 nM.
Then `O=c1[nH]c2cc(Nc3nc(Nc4cccc(C(O)C(F)(F)F)c4)ncc3F)ccc2o1` (stereo not drawn) [Compound I-210, 5-fluoro-N2-[3-(1-hydroxy-2,2,2-trifluoroethyl)]phenyl-N4-(2-oxo-2,3-dihydro-1,3-benzoxazol-5-yl)-2,4-pyrimidinediamine], with < 500 nM; and `COC(=O)c1cnc(Nc2cc(C)c(C)c(C)c2)nc1Nc1ccc2oc(=O)[nH]c2c1` [Compound I-40, 4-(2-Oxo-2,3-dihydro-benzooxazol-5-ylamino)-2-(3,4,5-trimethyl-phenylamino)-pyrimidine-5-carboxylic acid methyl ester trifluoroacetate salt], with < 500 nM.
In the case of `COCCOc1c(C)ccc(Nc2ncc(Cl)c(Nc3ccc4oc(=O)[nH]c4c3)n2)c1F` [Compound I-66, 5-(5-chloro-2-(2-fluoro-3-(2-methoxyethoxy)-4-methylphenylamino)pyrimidin-4-ylamino)benzo[d]oxazol-2(3H)-one trifluoroacetate salt], the IC50 is < 500 nM.
Regarding `Cc1cnc(Nc2ccc3c(c2)COC3)nc1Nc1ccc2oc(=O)[nH]c2c1` [II-9, N2-(1,3-dihydro-isobenzofuran-5-yl)-5-methyl-N4-(2-oxo-2,3-dihydro-1,3-benzoxazol-5-yl)-2,4-pyrimidinediamine], the IC50 was < 500 nM.
The figure for `COc1cccc(Nc2ncc(C)c(Nc3ccc4oc(=O)[nH]c4c3)n2)c1F` [Compound I-19, 5-[2-(2-Fluoro-3-methoxy-phenylamino)-5-methyl-pyrimidin-4-ylamino]-3H-benzooxazol-2-one] is < 500 nM; for `COc1ccc(Nc2ncc(Cl)c(Nc3ccc4oc(=O)[nH]c4c3)n2)c(F)c1OC` [Compound I-51, 5-(5-chloro-2-(2-fluoro-3,4-dimethoxyphenylamino)pyrimidin-4-ylamino)benzo[d]oxazol-2(3H)-one trifluoroacetate salt] it is < 500 nM.
The figure for `COc1cc(Nc2ncc([N+](=O)[O-])c(Nc3ccc4oc(=O)[nH]c4c3)n2)ccc1C` [Compound I-44, 5-(2-(3-methoxy-4-methylphenylamino)-5-nitropyrimidin-4-ylamino)benzo[d]oxazol-2(3H)-one trifluoroacetate salt] is > 10000 nM.
Then `COc1cc(Nc2ncc(F)c(Nc3cc(F)c4oc(=O)[nH]c4c3)n2)cc(C)c1F` [Compound I-191, 5-(2-(4-fluoro-3-methoxy-5-methylphenylamino)-5-fluoropyrimidin-4-ylamino)-7-fluorobenzo[d]oxazol-2(3H)-one trifluoroacetate salt], with < 500 nM.
As for `Cc1cnc(Nc2cc(C)c(C)c(C)c2)nc1Nc1ccc2oc(=O)[nH]c2c1` [Compound I-131, 5-methyl-N4-(2-oxo-2,3-dihydro-1,3-benzoxazol-5-yl)-N2-(3,4,5-trimethyl)phenyl-2,4-pyrimidinediamine benzenesulfonic acid salt], the IC50 was < 500 nM.
Then `Cc1ccc(Nc2ncc([N+](=O)[O-])c(Nc3ccc4oc(=O)[nH]c4c3)n2)cc1N(C)C` [Compound I-45, 5-(2-(3-(dimethylamino)-4-methylphenylamino)-5-nitropyrimidin-4-ylamino)benzo[d]oxazol-2(3H)-one trifluoroacetate salt], with > 10000 nM.
